Here are results for 16 compounds from patent US20230365537A1, “POLO LIKE KINASE 4 INHIBITORS” (ORIC Pharmaceuticals, Inc., priority 2021, published 2023).

One may read the IC50 as the concentration needed to halve the response being measured.

The target of experiment [1] is human recombinant Aurora A (Homo sapiens (Human), UniProt O14965). In words: Aurora A Kinase Biochemical Assay (ADP-Glo). The note with it: ratio of Aurora A IC50 to PLK4 IC50 (selectivity). On the technique in general: ADP-Glo first removes unused ATP, then detects ADP through luciferase.
The target in experiment [2] is human recombinant Aurora B (Homo sapiens (Human), UniProt Q96GD4). In words: Aurora B Kinase Biochemical Assay (ADP-Glo). Particulars: ratio of Aurora B IC50 to PLK4 IC50 (selectivity). Summed up: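 Recombinant human Aurora B (20 nM in pH 7.5 HEPES buffer with MgCl2, EGTA, DTT, Brij-35, BSA) preincubated with compound 15 min at RT. ADP formed quantified by ADP-Glo luminescence after ATP depletion (40 min) and detection (30 min). IC50 from four-parameter non-linear regression.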

The next experiment has as its target human recombinant PLK4 (Homo sapiens (Human), UniProt O00444). In words: PLK4 Biochemical Assay (ADP-Glo). The note with it: 0.5 nM PLK4, 8.0 µM ATP, 4.7 µM MBP, 6 hours at RT. The essentials:
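Recombinant human PLK4 (added at 1.0 nM) was preincubated 15 min at RT with compound in 50 mM HEPES pH 7.5, 10 mM MgCl2, 1 mM EGTA, 1 mM DTT, 0.01% Brij-35, 0.01% BSA. ADP formed was detected by ADP-Glo luminescence (40 min ATP depletion, 30 min detection). IC50 came from a four-parameter fit.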

The test system of another experiment is CHP-134 cells. In words: CHP134 CellTiter-Glo (CTG) Assay. In kind it is cell-based. The note with it: Homo sapiens, CHP-134, 120 h, 5 days, viable cells by CellTiter-Glo. Summed up:
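CHP-134 cells seeded at 200 cells/well for 16 h, then given nine 1:3 serial dilutions in quadruplicate at 37° C, 5% CO2. Viable cells measured by CellTiter-Glo luminescence after 5 days; IC50 calculated from curves.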
On the technique in general: In ATP-based viability assays light output follows the ATP content of the culture.

Chain of human recombinant Aurora B (Q96GD4 whole entry): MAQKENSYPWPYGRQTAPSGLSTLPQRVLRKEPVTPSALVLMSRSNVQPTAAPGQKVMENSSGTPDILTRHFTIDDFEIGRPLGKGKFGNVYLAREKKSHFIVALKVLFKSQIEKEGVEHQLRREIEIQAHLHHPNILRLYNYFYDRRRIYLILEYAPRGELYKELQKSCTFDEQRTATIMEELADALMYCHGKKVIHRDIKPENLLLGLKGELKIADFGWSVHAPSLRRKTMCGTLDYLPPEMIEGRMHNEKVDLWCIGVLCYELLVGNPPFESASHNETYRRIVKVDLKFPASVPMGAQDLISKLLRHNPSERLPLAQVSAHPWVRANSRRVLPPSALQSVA
Chain of human recombinant Aurora A (O14965 whole entry): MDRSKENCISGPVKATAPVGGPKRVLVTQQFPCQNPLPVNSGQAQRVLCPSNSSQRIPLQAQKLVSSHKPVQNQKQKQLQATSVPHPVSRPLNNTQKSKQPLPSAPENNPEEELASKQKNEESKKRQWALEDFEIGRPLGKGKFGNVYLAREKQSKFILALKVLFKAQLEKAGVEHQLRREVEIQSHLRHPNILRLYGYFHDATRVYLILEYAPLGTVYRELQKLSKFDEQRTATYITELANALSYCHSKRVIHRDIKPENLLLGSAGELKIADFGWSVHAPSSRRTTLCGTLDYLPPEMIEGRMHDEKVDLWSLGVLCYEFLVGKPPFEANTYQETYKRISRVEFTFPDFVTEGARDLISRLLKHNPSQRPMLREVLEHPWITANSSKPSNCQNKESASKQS
Chain of human recombinant PLK4 (O00444 whole entry): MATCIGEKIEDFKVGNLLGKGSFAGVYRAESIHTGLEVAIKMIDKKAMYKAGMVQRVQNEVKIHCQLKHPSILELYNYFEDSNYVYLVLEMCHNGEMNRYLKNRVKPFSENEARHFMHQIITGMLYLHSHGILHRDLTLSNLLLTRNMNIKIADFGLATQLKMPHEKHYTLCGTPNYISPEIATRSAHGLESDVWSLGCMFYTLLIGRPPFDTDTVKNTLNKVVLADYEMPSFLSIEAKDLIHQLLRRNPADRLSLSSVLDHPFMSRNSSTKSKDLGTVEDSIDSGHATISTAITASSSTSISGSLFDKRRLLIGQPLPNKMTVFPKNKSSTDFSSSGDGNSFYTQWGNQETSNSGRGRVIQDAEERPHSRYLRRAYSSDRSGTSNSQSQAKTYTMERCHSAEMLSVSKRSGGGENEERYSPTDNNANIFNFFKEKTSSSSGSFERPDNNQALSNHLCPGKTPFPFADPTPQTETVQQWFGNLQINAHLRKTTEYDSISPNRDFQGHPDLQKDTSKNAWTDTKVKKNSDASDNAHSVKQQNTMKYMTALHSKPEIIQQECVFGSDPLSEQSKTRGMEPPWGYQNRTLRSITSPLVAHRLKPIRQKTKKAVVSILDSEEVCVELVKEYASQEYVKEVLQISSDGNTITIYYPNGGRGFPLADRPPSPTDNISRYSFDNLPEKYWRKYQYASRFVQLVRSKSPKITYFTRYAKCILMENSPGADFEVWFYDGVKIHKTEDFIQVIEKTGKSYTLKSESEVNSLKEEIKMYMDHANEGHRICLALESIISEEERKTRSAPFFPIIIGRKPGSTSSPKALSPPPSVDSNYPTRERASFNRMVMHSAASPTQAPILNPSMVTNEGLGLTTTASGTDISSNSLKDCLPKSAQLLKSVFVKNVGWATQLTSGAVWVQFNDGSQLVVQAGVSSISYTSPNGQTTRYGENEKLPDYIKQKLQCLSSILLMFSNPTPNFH

On to `COc1ccc2c(c1)[C@]1(C[C@H]1c1ccc3c(Nc4nc5cccnc5cc4OC)n[nH]c3c1)C(=O)N2` [Example 217, (1R,2S)-5′-methoxy-2-{3-[(3-methoxy-1,5-naphthyridin-2-yl)amino]-1H-indazol-6-yl}spiro[cyclopropane-1,3′-indol]-2′(1′H)-one], for which the “[Aurora A IC50 (nM)]/[PLK4 IC50 (nM)]” value in experiment [1] is 416.7367. Also, the “[Aurora B IC50 (nM)]/[PLK4 IC50 (nM)]” value in experiment [2] is given as 170.9840. The IC50 at human recombinant PLK4 is 1.19 nM; in the experiment with CHP-134 cells, 450 nM.

Take `COc1ccc2c(c1)[C@]1(C[C@H]1c1ccc3c(Nc4ccc(C(=O)N(C)OC)nc4OC)n[nH]c3c1)C(=O)N2` [Example 218, N,6-dimethoxy-5-({6-[(1R,2S)-5′-methoxy-2′-oxo-1′,2′-dihydrospiro[cyclopropane-1,3′-indol]-2-yl]-1H-indazol-3-yl}amino)-N-methylpyridine-2-carboxamide]: the “[Aurora A IC50 (nM)]/[PLK4 IC50 (nM)]” value in experiment [1] was 806.5968. Further, the “[Aurora B IC50 (nM)]/[PLK4 IC50 (nM)]” value in experiment [2] amounted to 70.8586. Moreover, the half-inhibitory concentration (IC50) on human recombinant PLK4 is 0.955 nM; in the experiment on CHP-134 cells, 73.8 nM.

`COc1ccc2c(c1)[C@]1(C[C@H]1c1ccc3c(Nc4ccc(C(=O)NNC(C)C)nc4OC)n[nH]c3c1)C(=O)N2` [Example 219, 6-methoxy-5-({6-[(1R,2S)-5′-methoxy-2′-oxo-1′,2′-dihydrospiro[cyclopropane-1,3′-indol]-2-yl]-1H-indazol-3-yl}amino)-N′-(propan-2-yl)pyridine-2-carbohydrazide]: the “[Aurora A IC50 (nM)]/[PLK4 IC50 (nM)]” value in experiment [1] was 763.5782. The “[Aurora B IC50 (nM)]/[PLK4 IC50 (nM)]” value in experiment [2] came out at 64.2571. In addition, the IC50 on human recombinant PLK4 amounted to 2.5 nM; in the experiment with CHP-134 cells, 510 nM.

On to `COc1ccc2c(c1)[C@]1(C[C@H]1c1ccc3c(Nc4ccc(S(=O)(=O)N(C)C)nc4OC)n[nH]c3c1)C(=O)N2` [Example 222, 6-methoxy-5-({6-[(1R,2S)-5′-methoxy-2′-oxo-1′,2′-dihydrospiro[cyclopropane-1,3′-indol]-2-yl]-1H-indazol-3-yl}amino)-N,N-dimethylpyridine-2-sulfonamide], for which the “[Aurora A IC50 (nM)]/[PLK4 IC50 (nM)]” value in experiment [1] is recorded as 446.1368. For the same compound, the “[Aurora B IC50 (nM)]/[PLK4 IC50 (nM)]” value in experiment [2] was found to be 546.4311. In addition, the values for the IC50 at human recombinant PLK4 and with CHP-134 cells were 1.36 nM and 456 nM, respectively.

For the compound `CCOc1nc(S(=O)(=O)N(C)C)ccc1Nc1n[nH]c2cc([C@@H]3C[C@@]34C(=O)Nc3ccc(OC)cc34)ccc12` [Example 223, 6-ethoxy-5-({6-[(1R,2S)-5′-methoxy-2′-oxo-1′,2′-dihydrospiro[cyclopropane-1,3′-indol]-2-yl]-1H-indazol-3-yl}amino)-N,N-dimethylpyridine-2-sulfonamide], the “[Aurora A IC50 (nM)]/[PLK4 IC50 (nM)]” value in experiment [1] is on record as 1004.7743. Also, the “[Aurora B IC50 (nM)]/[PLK4 IC50 (nM)]” value in experiment [2] came out at 445.3125. In addition, the values for the IC50 on human recombinant PLK4 and in the experiment on CHP-134 cells were 2.3 nM and 163 nM, respectively.

Regarding `COc1ccc2c(c1)[C@]1(C[C@H]1c1ccc3c(Nc4cc(C(C)(C)O)cnc4OC)n[nH]c3c1)C(=O)N2` [Example 226, (1R,2S)-2-(3-{[5-(2-hydroxypropan-2-yl)-2-melhoxypyridin-3-yl]amino}-1H-indazol-6-yl)-5′-methoxyspiro[cyclopropane-1,3′-indol]-2′(1′H)-one], the “[Aurora A IC50 (nM)]/[PLK4 IC50 (nM)]” value in experiment [1] worked out at 2759.6376. In addition, the “[Aurora B IC50 (nM)]/[PLK4 IC50 (nM)]” value in experiment [2] is reported as 474.6155. The results for the concentration for half-maximal inhibition (IC50) on human recombinant PLK4 and in the experiment with CHP-134 cells were 4.75 nM and 2150 nM, respectively.

On to `CCS(=O)(=O)c1cnc(Nc2n[nH]c3cc([C@@H]4C[C@@]45C(=O)Nc4ccc(OC)cc45)ccc23)c(OC)c1` [Example 228, (1R,2S)-2-(3-{[5-(Ethanesulfonyl)-3-methoxypyridin-2-yl]amino}-1H-indazol-6-yl)-5′-methoxyspiro[cyclopropane-1,3′-indol]-2′(1′H)-one], for which the “[Aurora A IC50 (nM)]/[PLK4 IC50 (nM)]” value in experiment [1] was 813.6599. Also, the “[Aurora B IC50 (nM)]/[PLK4 IC50 (nM)]” value in experiment [2] is given as 340.4602. In addition, the IC50 at human recombinant PLK4 turned out to be 1.35 nM; in the experiment on CHP-134 cells, 180 nM.

Turning to `COc1ccc2c(c1)[C@]1(C[C@H]1c1ccc3c(Nc4ccc(C(=O)NCC5CC5)nc4OC)n[nH]c3c1)C(=O)N2` [Example 230, N-(cyclopropylmethyl)-6-methoxy-5-({6-[(1R,2S)-5′-methoxy-2′-oxo-1′,2′-dihydrospiro[cyclopropane-1,3′-indol]-2-yl]-1H-indazol-3-yl}amino)pyridine-2-carboxamide], the “[Aurora A IC50 (nM)]/[PLK4 IC50 (nM)]” value in experiment [1] stood at 12432.2103. In addition, the “[Aurora B IC50 (nM)]/[PLK4 IC50 (nM)]” value in experiment [2] is 213.4346. The IC50 turned out to be 2.43 nM on human recombinant PLK4 and 395 nM in the experiment with CHP-134 cells.

With `COc1ccc2c(c1)[C@]1(C[C@H]1c1ccc3c(Nc4ccc(C(=O)NC(C)C)nc4OC)n[nH]c3c1)C(=O)N2` [Example 231, 6-methoxy-5-({6-[(1R,2S)-5′-methoxy-2′-oxo-1′,2′-dihydrospiro[cyclopropane-1,3′-indol]-2-yl]-1H-indazol-3-yl}amino)-N-(propan-2-yl)pyridine-2-carboxamide], the “[Aurora A IC50 (nM)]/[PLK4 IC50 (nM)]” value in experiment [1] is recorded as 4955.7692. Also, in experiment [2], the “[Aurora B IC50 (nM)]/[PLK4 IC50 (nM)]” value worked out at 316.7307. The IC50 was 1.56 nM at human recombinant PLK4 and 397 nM in the experiment on CHP-134 cells.

As to `COc1ccc2c(c1)[C@]1(C[C@H]1c1ccc3c(Nc4ccc(C(=O)N5C6CCC5COC6)nc4OC)n[nH]c3c1)C(=O)N2` [Example 232, (1R,2S)-5′-methoxy-2-(3-{[2-methoxy-6-(3-oxa-8-azabicyclo[3.2.1]octane-8-carbonyl)pyridin-3-yl]amino}-1H-indazol-6-yl)spiro[cyclopropane-1,3′-indol]-2′(1′H)-one], in experiment [1], the “[Aurora A IC50 (nM)]/[PLK4 IC50 (nM)]” value amounted to 651.7909. Besides, the “[Aurora B IC50 (nM)]/[PLK4 IC50 (nM)]” value in experiment [2] is 105.5179. The IC50 came out at 1.03 nM on human recombinant PLK4 and 141 nM in the experiment with CHP-134 cells.

As for `COc1ccc2c(c1)[C@]1(C[C@H]1c1ccc3c(Nc4nn(C)c(=O)cc4OC)n[nH]c3c1)C(=O)N2` [Example 233, (1R,2S)-5′-methoxy-2-{3-[(4-methoxy-1-methyl-6-oxo-1,6-dihydropyridazin-3-yl)amino]-1H-indazol-6-yl)spiro[cyclopropane-1,3′-indol]-2′(1′H)-one], in experiment [1], the “[Aurora A IC50 (nM)]/[PLK4 IC50 (nM)]” value worked out at 332.3068. Moreover, the “[Aurora B IC50 (nM)]/[PLK4 IC50 (nM)]” value in experiment [2] is reported as 107.2788. Further, the IC50 at human recombinant PLK4 stood at 3.57 nM; with CHP-134 cells it was 4800 nM.

`COc1ccc2c(c1)[C@]1(C[C@H]1c1ccc3c(Nc4cc(-c5ncco5)cnc4OC)n[nH]c3c1)C(=O)N2` [Example 234, (1R,2S)-5′-Methoxy-2-(3-{[2-methoxy-5-(1,3-oxazol-2-yl)pyridin-3-yl]amino}-1H-indazol-6-yl)spiro[cyclopropane-1,3′-indol]-2′(1′H)-one]: the “[Aurora A IC50 (nM)]/[PLK4 IC50 (nM)]” value in experiment [1] stood at 608.9799. Moreover, the “[Aurora B IC50 (nM)]/[PLK4 IC50 (nM)]” value in experiment [2] is 831.7349. Further, the IC50 on human recombinant PLK4 was 2.29 nM; in the experiment with CHP-134 cells, 276 nM.

For the compound `COc1ccc2c(c1)[C@]1(C[C@H]1c1ccc3c(Nc4cc(C)c(C(=O)N(C)C)nc4OC)n[nH]c3c1)C(=O)N2` [Example 238, 6-methoxy-5-({6-[(1R,2S)-5′-methoxy-2′-oxo-1′,2′-dihydrospiro[cyclopropane-1,3′-indol]-2-yl]-1H-indazol-3-yl}amino)-N,N,3-trimethylpyridine-2-carboxamide], in experiment [1], the “[Aurora A IC50 (nM)]/[PLK4 IC50 (nM)]” value is listed as 536.1. Moreover, the “[Aurora B IC50 (nM)]/[PLK4 IC50 (nM)]” value in experiment [2] turned out to be 582.2189. The IC50 at human recombinant PLK4 amounted to 1.36 nM; in the experiment on CHP-134 cells, 133 nM.

For the compound `COc1ccc2c(c1)[C@]1(C[C@H]1c1ccc3c(Nc4cnc(S(C)(=O)=O)cc4OC)n[nH]c3c1)C(=O)N2` [Example 241, (1R,2S)-2-(3-{[6-(methanesulfonyl)-4-methoxypyridin-3-yl]amino}-1H-indazol-6-yl)-5′-methoxyspiro[cyclopropane-1,3′-indol]-2′(1′H)-one], in experiment [1], the “[Aurora A IC50 (nM)]/[PLK4 IC50 (nM)]” value stood at 2066.9875. The “[Aurora B IC50 (nM)]/[PLK4 IC50 (nM)]” value in experiment [2] is on record as 253.4697. Besides, the IC50 came out at 2.49 nM on human recombinant PLK4 and 1100 nM in the experiment with CHP-134 cells.

Regarding `COc1ccc2c(c1)[C@]1(C[C@H]1c1ccc3c(Nc4ncc(S(C)(=O)=O)nc4OC)n[nH]c3c1)C(=O)N2` [Example 242, (1R,2S)-2-(3-{[5-(methanesulfonyl)-3-methoxypyrazin-2-yl]amino}-1H-indazol-6-yl)-5′-methoxyspiro[cyclopropane-1,3′-indol]-2′(1′H)-one], the “[Aurora A IC50 (nM)]/[PLK4 IC50 (nM)]” value in experiment [1] is given as 307.7159. Further, the “[Aurora B IC50 (nM)]/[PLK4 IC50 (nM)]” value in experiment [2] is given as 129.0381. Further, the results for the IC50 on human recombinant PLK4 and in the experiment on CHP-134 cells were 6.52 nM and 5510 nM, respectively.

Consider `COc1ccc2c(c1)[C@]1(C[C@H]1c1ccc3c(Nc4ccc(C(=O)N(C5CC5)C5CC5)nc4OC)n[nH]c3c1)C(=O)N2` [Example 243, N,N-dicyclopropyl-6-methoxy-5-({6-[(1R,2S)-5′-methoxy-2′-oxo-1′,2′-dihydrospiro[cyclopropane-1,3′-indol]-2-yl]-1H-indazol-3-yl}amino)pyridine-2-carboxamide], for which the “[Aurora A IC50 (nM)]/[PLK4 IC50 (nM)]” value in experiment [1] was 479.1122. Besides, the “[Aurora B IC50 (nM)]/[PLK4 IC50 (nM)]” value in experiment [2] was 164.5778. The values for the IC50 at human recombinant PLK4 and in the experiment with CHP-134 cells were 1.15 nM and 188 nM, respectively.
